According to patent US20050101595A1, “N-containing cycloalkyl-substituted amino-thiazole derivatives and pharmaceutical compositions for inhibiting cell proliferation and methods for their use” (PFIZER INC., priority 2003, published 2005):
Read-outs that look alike come from different tables or passages of the source. Values belong to the compound of their own block, whether it stands above or below them.

Assays:
CDK2/Cyclin A = CDK2/Cyclin A (Homo sapiens, UniProt P24941); test: Inhibition of CDK2/Cyclin A Retinoblastoma Kinase Activity; assay type: biochemical; settings: for Ki: apparent Ki, CDK2/proteolyzed cyclin A, Rb fragment substrate, 25 μM ATP
In short: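 Baculovirus-expressed CDK2 complexed with proteolyzed cyclin A (10 or 19 nM), Rb fragment substrate, 25 μM [32P/33P]ATP, HEPES pH 7.4, 30 °C for 60 or 75 min under initial-rate conditions. Filter capture and phosphorimager readout; apparent Ki fitted to competitive or tight-binding competitive inhibition.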

HCT-116 cell line = test: Inhibition of cell growth, tetrazolium salt (MTT) assay; assay type: cell-based; settings: for IC50: Homo sapiens, HCT-116, 120 h, MTT, three to five days, read-out: HCT-116 IC50; for HCT-116 % Inhibition at 0.25 μM: 0.25 μM compound
In short: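 Growth inhibition by MTT reduction at 540 nm (0.2 mg/mL, 4 h at 37° C, formazan dissolved in DMSO), normalized to cells given only 0.5% v/v DMSO. HCT-116 cultures in McCoy's 5A were dosed 4 h post-plating and kept three to five days at 37° C, 5% CO2.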

[1] = target: human CDK4 and genetically truncated (1-264) cyclin D3 (Homo sapiens, UniProt P11802); test: Inhibition of CDK4/Cyclin D Retinoblastoma Kinase Activity; assay type: biochemical; settings: for Ki: apparent Ki, CDK4/truncated cyclin D3, Rb fragment substrate, 25 μM ATP
Experimental: Cyclin-dependent kinase activity was measured by quantifying the enzyme-catalyzed, time-dependent incorporation of radioactive phosphate from [^32P]ATP or [^33P]ATP into a protein substrate. Unless noted otherwise, assays were performed in 96-well plates in a total volume of 50 μL, in the presence of 10 mM HEPES (N-[2-hydroxyethyl]piperazine-N′-[2-ethanesulfonic acid]) (pH 7.4), 10 mM MgCl2, 25 μM adenosine triphosphate (ATP), 1 mg/mL ovalbumin, 5 μg/mL leupeptin, 1 mM dithiothreitol, 10 mM β-glycerophosphate, 0.1 mM sodium vanadate, 1 mM sodium fluoride, 2.5 mM ethylene glycol-bis(β-aminoethyl ether)-N,N,N′N′-tetraacetic acid (EGTA), 2% (v/v) dimethylsulfoxide, and 0.03-0.4 μCi [^32/33P]ATP per reaction. Reactions were initiated with enzyme, incubated at 30° C., and terminated after 20 minutes by the addition of ethylenediaminetetraacetic acid (EDTA) to 250 mM. The phosphorylated substrate was then captured on a nitrocellulose or phosphocellulose membrane using a 96-well filtration manifold, and unincorporated radioactivity was removed by repeated washing with 0.85% phosphoric acid. Radioactivity was quantified by exposing the dried membranes to a phosphorimager.
Inhibition was measured relative to control wells that contained all reaction components including 2% (v/v) DMSO but no compound, after subtraction of background radioactivity measured in the absence of enzyme. Apparent Ki values of discrete compounds were measured by assaying enzyme activity in the presence of different inhibitor compound concentrations and subtracting the background radioactivity measured in the absence of enzyme. The kinetic parameters (kcat, Km for ATP) were measured for each enzyme under the usual assay conditions by determining the dependence of initial rates on ATP concentration. Inhibition data were fit to an equation for competitive inhibition using Kaleidagraph (Synergy Software), or were fit to an equation for competitive tight-binding inhibition using the software KineTic (BioKin, Ltd.).
Inhibition of CDK4/Cyclin D Retinoblastoma Kinase Activity:
A complex of human CDK4 and genetically truncated (1-264) cyclin D3 was purified using traditional biochemical chromatographic techniques from insect cells that had been co-infected with the corresponding baculovirus expression vectors (see e.g., Meijer and Kim, “Chemical Inhibitors of Cyclin-Dependent Kinases,” Methods in Enzymol,. vol. 283 (1997), pp. 113-128.). The enzyme complex (5 nM) was assayed with 0.3-0.5 μg of purified recombinant retinoblastoma protein fragment (Rb) as a substrate. The engineered Rb fragment (residues 386-928 of the native retinoblastoma protein; 62.3 kDa) contains the majority of the phosphorylation sites found in the native 106-kDa protein, as well as a tag of six histidine residues for ease of purification. Phosphorylated Rb substrate was captured by microfiltration on a nitrocellulose membrane and quantified using a phosphorimager as described above. For measurement of tight-binding inhibitors, the assay duration was extended to 60 minutes, during which the time-dependence of product formation was linear and initial rate conditions were met.

[2] = 0.03 μM compound, Table 2, 0.03 µM
[3] = 0.1 μM compound, HCT-116, Table 3

Sequence of human CDK4 and genetically truncated (1-264) cyclin D3 (P11802 whole entry, the tested form may be a part): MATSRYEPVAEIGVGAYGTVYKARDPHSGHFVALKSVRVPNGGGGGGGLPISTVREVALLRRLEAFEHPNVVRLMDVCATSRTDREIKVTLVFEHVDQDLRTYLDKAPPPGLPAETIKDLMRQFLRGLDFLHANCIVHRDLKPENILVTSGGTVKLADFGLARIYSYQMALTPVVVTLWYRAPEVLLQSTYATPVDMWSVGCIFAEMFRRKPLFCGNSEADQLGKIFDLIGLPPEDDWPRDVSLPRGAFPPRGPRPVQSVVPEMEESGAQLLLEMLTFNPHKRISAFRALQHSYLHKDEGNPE
Sequence of human CDK4 and genetically truncated (1-264) cyclin D3 (P30281 1-264 partner): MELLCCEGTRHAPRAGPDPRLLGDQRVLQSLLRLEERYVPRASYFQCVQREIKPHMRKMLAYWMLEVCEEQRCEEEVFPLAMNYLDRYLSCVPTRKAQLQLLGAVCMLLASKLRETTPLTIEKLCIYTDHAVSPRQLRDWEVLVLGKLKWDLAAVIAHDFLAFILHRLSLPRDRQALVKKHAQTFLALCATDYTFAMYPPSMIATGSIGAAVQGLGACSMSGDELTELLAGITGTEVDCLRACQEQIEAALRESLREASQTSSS

Structure (SMILES): CC[C@@H](NCCS(=O)(=O)N1CCC(Nc2nc(N)c(C(=O)c3c(F)cccc3F)s2)CC1)c1ccccc1 [Example K46, (4-Amino-2-{1-[2-(1 R-phenyl-propylamino)-ethanesulfonyl]-piperidin-4-ylamino}-thiazol-5-yl)-(2,6-difluoro-phenyl)-methanone]
- Ki (CDK2/Cyclin A): 0.00081 µM
- IC50 (HCT-116 cell line; first HCT-116 column (c4)): 0.13 µM
- IC50 (HCT-116 cell line; second HCT-116 column (c5)): 0.26 µM
- Ki [1]: 0.0021 µM

Structure (SMILES): COc1ccc(NC(=O)N2CCC(Nc3nc(N)c(C(=O)c4c(F)cccc4F)s3)CC2)cc1 [Example O21]
- CDK2 % Inhibition At 0.03 μM (CDK2/Cyclin A; [2]): 37%
- HCT-116 % Inhibition at 0.25 μM (HCT-116 cell line; HCT-116, Table 2, 0.25 µM): 21%
- CDK4 % Inhibition at 0.03 μM [1, 2]: 13%

Structure (SMILES): Nc1nc(NC2CCN(C(=O)c3ccccc3C(F)(F)F)CC2)sc1C(=O)c1c(F)cccc1F [Example R124]
- CDK2 % Inhibition at 0.03 μM (CDK2/Cyclin A; at 0.03 μM): 18%
- HCT-116 % Inhibition at 0.1 μM (HCT-116 cell line; HCT-116 cells, at 0.1 μM): 0%
- HCT-116 5 Inhibition at 0.25 μM (HCT-116 cell line; HCT-116 cells): 35
- CDK4 % Inhibition at 0.03 μM ([1]; at 0.03 μM): 38%

Structure (SMILES): CC(=O)Oc1ccccc1C(=O)N1CCC(Nc2nc(N)c(C(=O)c3c(F)cccc3F)s2)CC1 [Example Q14]
- CDK2 % Inhibition at 0.03 μM (CDK2/Cyclin A; 0.03 μM compound, Table 4): 59%
- HCT-116 % Inhibition at 0.1 μM (HCT-116 cell line; 0.1 μM compound, HCT-116, Table 4): 15%
- HCT-116 % Inhibition at 0.25 μM (HCT-116 cell line; HCT-116, Table 4): 45%
- CDK4 % Inhibition at 0.03 μM ([1]; 0.03 μM compound, Table 4): 80%

Structure (SMILES): Nc1nc(NC2CCN(S(=O)(=O)CCCN3CCc4ccccc4C3)CC2)sc1C(=O)c1c(F)cccc1F [Example K5, 1-(4-Amino-2-{1-[3-(3,4-dihydro-1H-isoquinolin-2-yl)propane-1-sulfonyl]-piperidin-4-ylamino}-thiazol-5-yl)-1-(2,6-difluoro-phenyl)-methanone.]
- Ki (CDK2/Cyclin A): 0.001 µM
- IC50 (HCT-116 cell line; first HCT-116 column (c4)): 0.14 µM
- IC50 (HCT-116 cell line; second HCT-116 column (c5)): 0.58 µM
- Ki [1]: 0.0015 µM

Structure (SMILES): CCOc1ccccc1C(=O)N1CCC(Nc2nc(N)c(C(=O)c3c(F)cccc3F)s2)CC1 [Example R119]
- CDK2 % Inhibition at 0.03 μM (CDK2/Cyclin A; at 0.03 μM): 27%
- HCT-116 % Inhibition at 0.1 μM (HCT-116 cell line; HCT-116 cells, at 0.1 μM): 3%
- HCT-116 5 Inhibition at 0.25 μM (HCT-116 cell line; HCT-116 cells): 53
- CDK4 % Inhibition at 0.03 μM ([1]; at 0.03 μM): 31%

The next lines start with results.

- CDK2 % Inhibition at 0.03 μM (CDK2/Cyclin A; at 0.03 μM): 57%
- CDK4 % Inhibition at 0.03 μM ([1]; at 0.03 μM): 59%
Structure (SMILES): CS(=O)(=O)c1csc(C(=O)N2CCC(Nc3nc(N)c(C(=O)c4c(F)cccc4F)s3)CC2)c1Cl [Example R72]
- HCT-116 % Inhibition at 0.1 μM (HCT-116 cell line; HCT-116 cells, at 0.1 μM): 6%
- HCT-116 5 Inhibition at 0.25 μM (HCT-116 cell line; HCT-116 cells): 43

- CDK2 % Inhibition at 0.03 μM (CDK2/Cyclin A; 0.03 μM compound, Table 3): 60%
- CDK4 % Inhibition at 0.03 μM ([1]; 0.03 μM compound, Table 3): 79%
Structure (SMILES): Nc1nc(NC2CCN(S(=O)(=O)c3ccc(Cl)c4nonc34)CC2)sc1C(=O)c1c(F)cccc1F [Example P75]
- HCT-116 % Inhibition at 0.1 μM (HCT-116 cell line; [3]): 27%
- HCT-116 % Inhibition at 0.25 μM (HCT-116 cell line; HCT-116, Table 3): 43%

- Ki (CDK2/Cyclin A): 0.0014 µM
- IC50 (HCT-116 cell line; first HCT-116 column (c4)): 0.044 µM
- IC50 (HCT-116 cell line; second HCT-116 column (c5)): 0.17 µM
- Ki [1]: 0.0018 µM
Structure (SMILES): CN(CCS(=O)(=O)N1CCC(Nc2nc(N)c(C(=O)c3c(F)cccc3F)s2)CC1)Cc1ccccc1 [Example K39, (4-Amino-2-{1-[2-(benzyl-methyl-amino)-ethanesulfonyl]-piperidin-4-ylamino}-thiazol-5-yl)-(2,6-difluoro-phenyl)-methanone]

- CDK2 % Inhibition at 0.03 μM (CDK2/Cyclin A; 0.03 μM compound, Table 3): 65%
- CDK4 % Inhibition at 0.03 μM ([1]; 0.03 μM compound, Table 3): 82%
Structure (SMILES): Nc1nc(NC2CCN(S(=O)(=O)c3ccc(-c4ccccn4)s3)CC2)sc1C(=O)c1c(F)cccc1F [Example P45]
- HCT-116 % Inhibition at 0.1 μM (HCT-116 cell line; [3]): 14%
- HCT-116 % Inhibition at 0.25 μM (HCT-116 cell line; HCT-116, Table 3): 27%

- Ki (CDK2/Cyclin A): 0.002 µM
- IC50 (HCT-116 cell line; first HCT-116 column (c4)): < 5 µM
- IC50 (HCT-116 cell line; second HCT-116 column (c5)): < 5 µM
- Ki [1]: 0.014 µM
Structure (SMILES): Nc1nc(NC2CCN(S(=O)(=O)c3ccc(C(=O)O)cc3)CC2)sc1C(=O)c1c(F)cccc1F [Example F14, 4-{4-[4-Amino-5-(2,6-difluoro-benzoyl)-thiazol-2-ylamino]-piperidine-1-sulfonyl}-benzoic Acid]
